{"source": "patent US20210032651A1", "about": "“IMPROVEMENT OF HERBICIDE TOLERANCE TO HPPD INHIBITORS BY DOWN-REGULATION OF PUTATIVE 4-HYDROXYPHENYLPYRUVATE REDUCTASES IN SOYBEAN” (BASF SE, priority 2017, published 2021)", "test_system": "soybean T1 plants transformed with pMLS0519 or pCPE825", "test": "Field trial of the T1 generation, herbicide tolerance", "format": "in vivo", "conditions": "Puerto Rico, pMLS0519 and pCPE825 the most effective of the constructs tested"}
{"smiles": "CS(=O)(=O)c1cc(C(F)(F)F)ccc1C(=O)c1cnoc1C1CC1", "note": "[isoxaflutole, (5-cyclopropyl-4-isoxazolyl)[2-(methylsulfonyl)-4-(trifluoromethyl)phenyl]methanone]", "values": [{"measurement": "tolerance in field trial", "value": "good tolerance"}]}
